Test results taken from patent US20090270350A1, “Pyridinone Pyrazole Urea and Pyrimidinone Pyrazole Urea Derivatives” (PFIZER INC., priority 2006, published 2009).

biological target: p38α (Homo sapiens, UniProt Q16539); assay: p38α/MK2 cascade assay; assay type: biochemical; conditions: Table 1; inhibitors preincubated with p38α for 40 minutes; phosphorylation of Hsp27 peptide by MK-2, Caliper LabChip 3000; read-out: p38a/MK2 Cascade 40 min Pre-Incuabtion (% Inhibition): IC50
Method in brief: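 In a cascade format, p38α was preincubated 40 min with inhibitor (1000–0.05 nM) before adding 1 nM nonactive MK2 (54-400), 5 μM MgATP and 0.5 μM FITC-Hsp27 peptide. Reaction ran 60 min in HEPES pH 7.5 with MgCl2, DTT, 2% DMSO, then EDTA-quenched. Peptide phosphorylation was measured by Caliper mobility shift to give IC50.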

p38α, sequence (Q16539 whole entry): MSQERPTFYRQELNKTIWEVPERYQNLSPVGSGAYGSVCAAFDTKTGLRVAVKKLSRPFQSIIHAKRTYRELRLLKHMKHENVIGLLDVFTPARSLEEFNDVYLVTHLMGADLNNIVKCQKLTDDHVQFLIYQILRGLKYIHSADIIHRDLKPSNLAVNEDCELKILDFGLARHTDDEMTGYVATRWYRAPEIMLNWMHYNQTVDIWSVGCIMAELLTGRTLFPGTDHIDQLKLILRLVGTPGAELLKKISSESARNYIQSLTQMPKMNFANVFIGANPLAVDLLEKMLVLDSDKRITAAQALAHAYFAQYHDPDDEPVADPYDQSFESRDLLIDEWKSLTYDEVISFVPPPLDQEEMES

**Q.** `Cc1ccc(-n2nc(C(C)(C)C)cc2NC(=O)NCc2cc(F)ccc2COc2cc(C)n(-c3cc(C(=O)NCCO)ccc3C)c(=O)c2Cl)cc1` [Example 190, 3-{4-[(2-{[({[3-tert-butyl-1-(4-methylphenyl)-1H-pyrazol-5-yl]amino}carbonyl)amino]methyl}-4-fluorobenzyl)oxy]-3-chloro-6-methyl-2-oxopyridin-1(2H)-yl}-N-(2-hydroxyethyl)-4-methylbenzamide] was tested. Which IC50 did it give?
**A.** Its IC50 is 2.37 nM.

**Q.** With `COc1cccc(Cn2c(C)cc(OCc3ccccc3CNC(=O)Nc3cc(C(C)(C)C)nn3-c3cccc(OC)c3)c(Cl)c2=O)c1` [Example 44, 1-[3-tert-butyl-1-(3-methoxyphenyl)-1H-pyrazol-5-yl]-3-[2-({[3-chloro-1-(3-methoxybenzyl)-6-methyl-2-oxo-1,2-dihydropyridin-4-yl]oxy}methyl)benzyl]urea] as the compound, how does the IC50 read?
**A.** The IC50 was 5.8 nM.

**Q.** For `COc1ccc(Cn2c(C)cc(OCc3ccccc3CNC(=O)Nc3cc(C(C)(C)C)nn3-c3ccc(C)cc3)c(Br)c2=O)c(OC)c1` [Example 122, 1-[2-({[3-bromo-1-(2,4-dimethoxybenzyl)-6-methyl-2-oxo-1,2-dihydropyridin-4-yl]oxy}methyl)benzyl]-3-[3-tert-butyl-1-(4-methylphenyl)-1H-pyrazol-5-yl]urea], which IC50 is on record?
**A.** Its IC50 is 15.4 nM.

**Q.** For `COc1cccc(Cn2c(C)cc(OCc3ccc(F)cc3CNC(=O)Nc3cc(C(C)(C)C)nn3-c3ccc(Cl)c(O)c3)c(Cl)c2=O)c1` [Example 45, 1-[3-tert-butyl-(4-chloro-3-hydroxyphenyl)-1H-pyrazol-5-yl]-3-[2-({[3-chloro-1-(3-methoxybenzyl)-6-methyl-2-oxo-1,2-dihydropyridin-4-yl]oxy}methyl)-5-fluorobenzyl]urea], which IC50 is on record?
**A.** Its IC50 is 6.2 nM.

**Q.** How did the IC50 turn out when `Cc1ccc(-n2nc(C(C)(C)C)cc2NC(=O)NCc2ccccc2COc2cc(C)n(Cc3ccccc3)c(=O)c2Br)cc1` [Example 106, 1-(2-{[(1-benzyl-3-bromo-6-methyl-2-oxo-1,2-dihydropyridin-4-yl)oxy]methyl}benzyl)-3-[3-tert-butyl-1-(4-methylphenyl)-1H-pyrazol-5-yl]urea] was run?
**A.** Its IC50 is 4.59 nM.

**Q.** With `COc1cccc(Cn2c(C)cc(OCc3ccccc3CNC(=O)Nc3cc(C(C)(C)C)nn3-c3cccc(OCCO)c3)c(C)c2=O)c1` [Example 48, 1-{3-tert-butyl-1-[3-(2-hydroxyethoxy)phenyl]-1H-pyrazol-5-yl}-3-[2-({[1-(3-methoxybenzyl)-3,6-dimethyl-2-oxo-1,2-dihydropyridin-4-yl]oxy}methyl)benzyl]urea] as the compound, how does the IC50 read?
**A.** Its IC50 is 6.4 nM.

same assay, conditions: Table 2; same p38α/MK2 cascade assay; 40 minutes preincubation; read-out: p38a/MK2 Cascade 40 min Pre-Incuabtion (% Inhibition): IC50

**Q.** `CNC(=O)c1ccc(C)c(-n2c(C)cc(OCc3ccc(F)cc3CNC(=O)Nc3cc(C(C)(C)C)nn3-c3cccc(OC)c3)c(Cl)c2=O)c1` [Example 208, 3-{4-[(2-{[({[3-tert-butyl-1-(3-methoxyphenyl)-1H-pyrazol-5-yl]amino}carbonyl)amino]methyl}-4-fluorobenzyl)oxy]-3-chloro-6-methyl-2-oxopyridin-1(2H)-yl}-N,4-dimethyl-benzamide] was tested. Which IC50 did it give?
**A.** Its IC50 is 1.79 nM.

**Q.** Which IC50 does the source give for `COC(=O)c1ccc(C)c(-n2c(SC)nc(OCc3ccccc3CNC(=O)Nc3cc(C(C)(C)C)nn3-c3ccc(C)cc3)cc2=O)c1` [Example 204, methyl 3-{4-[(2-{[({[3-tert-butyl-1-(4-methylphenyl)-1H-pyrazol-5-yl]amino}carbonyl)-amino]-methyl}-benzyl)oxy]-2-(methylthio)-6-oxopyrimidin-1(6H)-yl}-4-methylbenzoate] here?
**A.** The IC50 was 26.3 nM.

**Q.** How did the IC50 turn out when `COc1ccccc1Cn1c(C)cc(OCc2ccccc2CNC(=O)Nc2cc(C(C)(C)C)nn2-c2ccc(Cl)c(O)c2)c(Cl)c1=O` [Example 262, 1-[3-tert-butyl-1-(4-chloro-3-hydroxyphenyl)-1H-pyrazol-5-yl]-3-[2-({[3-chloro-1-(2-methoxybenzyl)-6-methyl-2-oxo-1,2-dihydro-pyridin-4-yl]oxy}methyl)benzyl]urea] was run?
**A.** Its IC50 is 84.3 nM.

**Q.** With `COC(=O)c1ccc(C)c(-n2c(C)cc(OCc3ccccc3CNC(=O)Nc3cc(C(C)(C)C)nn3-c3ccc(O)cc3)c(Cl)c2=O)c1` [Example 213, methyl 3-{4-[(2-{[({[3-tert-butyl-1-(4-hydroxyphenyl)-1H-pyrazol-5-yl]amino}carbonyl)amino]methyl}benzyl)oxy]-3-chloro-6-methyl-2-oxopyridin-1(2H)-yl}-4-methylbenzoate] as the compound, how does the IC50 read?
**A.** Its IC50 is 4 nM.

**Q.** Which IC50 does the source give for `COc1ccc(Cn2c(C)cc(OCc3ccccc3CNC(=O)Nc3cc(C(C)(C)C)nn3-c3cccc(OCCO)c3)c(C)c2=O)cc1C#N` [Example 250, 1-{3-tert-butyl-1-[3-(2-hydroxyethoxy)phenyl]-1H-pyrazol-5-yl}-3-[2-({[1-(3-cyano-4-methoxybenzyl)-3,6-dimethyl-2-oxo-1,2-dihydropyridin-4-yl]oxy}methyl)benzyl]urea] here?
**A.** Its IC50 is 8.4 nM.

**Q.** How did the IC50 turn out when `COC(=O)c1ccc(C)c(-n2c(C)cc(OCc3ccccc3CNC(=O)Nc3cc(C(C)(C)C)nn3-c3ccc(O)c(Cl)c3)c(Cl)c2=O)c1` [Example 222, methyl 3-{4-[(2-{[({[3-tert-butyl-1-(3-chloro-4-hydroxy-phenyl)-1H-pyrazol-5-yl]amino}carbonyl)amino]-methyl}-benzyl)oxy]-3-chloro-6-methyl-2-oxopyridin-1(2H)-yl}-4-methylbenzoate] was run?
**A.** The IC50 was 9.6 nM.

**Q.** Which IC50 does the source give for `Cc1ccc(C(=O)NCCO)cc1-n1c(C)cc(OCc2ccccc2CNC(=O)Nc2cc(C(C)(C)C)nn2-c2ccc(O)cc2)c(Cl)c1=O` [Example 216, 3-{4-[(2-{[({[3-tert-butyl-1-(4-hydroxyphenyl)-1H-pyrazol-5-yl]amino}carbonyl)amino]methyl}benzyl)oxy]-3-chloro-6-methyl-2-oxopyridin-1(2H)-yl}-N-(2-hydroxyethyl)-4-methyl-benzamide] here?
**A.** The IC50 was 1.8 nM.

**Q.** For `COC(=O)c1ccc(C)c(-n2c(C)cc(OCc3ccc(F)cc3CNC(=O)Nc3cc(C(C)(C)C)nn3-c3ccc(O)cc3)c(Cl)c2=O)c1` [Example 232, methyl 3-{4-[(2-{[({[3-tert-butyl-1-(4-hydroxyphenyl)-1H-pyrazol-5-yl]amino}carbonyl)amino]methyl}-4-fluorobenzyl)-oxy]-3-chloro-6-methyl-2-oxopyridin-1(2H)-yl}-4-methylbenzoate], which IC50 is on record?
**A.** Its IC50 is 4.4 nM.

**Q.** `Cc1ccc(C(=O)NCC(O)CO)cc1-n1c(C)cc(OCc2ccccc2CNC(=O)Nc2cc(C(C)(C)C)nn2-c2ccc(Cl)c(O)c2)c(Cl)c1=O` (centres unmarked) [Example 234, 3-{4-[(2-{[({[3-tert-butyl-1-(4-chloro-3-hydroxyphenyl)-1H-pyrazol-5-yl]amino}carbonyl)amino]methyl}benzyl)oxy]-3-chloro-6-methyl-2-oxopyridin-1(2H)-yl}-N-(2,3-dihydroxy-propyl)-4-methylbenzamide] was tested. Which IC50 did it give?
**A.** Its IC50 is 1.3 nM.

**Q.** Which IC50 does the source give for `Cc1ccc(C(=O)NCC(O)CO)cc1-n1c(C)cc(OCc2ccccc2CNC(=O)Nc2cc(C(C)(C)C)nn2-c2ccc(O)c(Cl)c2)c(Cl)c1=O` (centres unmarked) [Example 227, 3-{4-[(2-{[({[3-tert-butyl-1-(3-chloro-4-hydroxyphenyl)-1H-pyrazol-5-yl]amino}carbonyl)amino]methyl}benzyl)oxy]-3-chloro-6-methyl-2-oxopyridin-1(2H)-yl}-N-(2,3-dihydroxy-propyl)-4-methylbenzamide] here?
**A.** The IC50 was 2 nM.

**Q.** For `Cc1ccc(C(=O)NCCO)cc1-n1c(C)cc(OCc2ccc(F)cc2CNC(=O)Nc2cc(C(C)(C)C)nn2-c2cccc(OCCO)c2)c(Cl)c1=O` [Example 239, 3-[4-{[2-({[({3-tert-butyl-1-[3-(2-hydroxyethoxy)phenyl]-1H-pyrazol-5-yl}amino)carbonyl]amino}methyl)-4-fluorobenzyl]-oxy}-3-chloro-6-methyl-2-oxopyridin-1(2H)-yl]-N-(2-hydroxy-ethyl)-4-methylbenzamide], which IC50 is on record?
**A.** Its IC50 is 2.9 nM.
